Blank lines part the entries; values can stand above or below the compound they belong to.
Experiments:
[1] = Liposome leakage of sulforhodamine B by fluorescence correlation spectroscopy, +/- Fe2+/ascorbate
Protocol: The equipment set up and peak intensity analysis was conducted as described in Perevoshchikova, et al., Biochim. Biophys. Acta 1778, 2182-2190 (2008). Briefly, fluorescence excitation and detection utilized a Nd: YAG solid state laser with a 532-nm beam attached to an Olympus IMT-2 epifluorescent inverted microscope equipped with a 40×, NA 1.2 water immersion objective (Carl Zeiss, Jena, Germany). The fluorescence light passed through an appropriate dichroic beam splitter and a long-pass filter and was imaged onto a 50-μm core fiber coupled to an avalanche photodiode (SPCM-AQR-13-FC, PerkinElmer Optoelectronics, Vaudreuil, Quebec, Canada). The signal from an output was sent to a PC using a fast interface card (Flex02-01D/C, Correlator.com, Bridgewater, NJ). The data acquisition time was 30 s. The fluorescence was recorded from the confocal volume located at about 50 μm above the coverslip surface with 50 μL of the buffer solution added. Most of the data were collected under the conditions of stirring a suspension by a paddle-shaped 3-mm plastic bar rotated at 600 rpm. To calibrate the setup, the fluorescence autocorrelation function of Rhodamine 6G solution was recorded. Assuming the diffusion coefficient of the dye to be 2.5×10^−6 cm^2/s, the value of the confocal radius is circa ω=0.42 μm. The correlated fluorescence emission signals were fitted to the three-dimensional autocorrelation function as described in Hess, et al., Biochemistry 41; 697-705 (2002).
SRB-loaded liposomes were suspended in an aqueous solution of Fe^2+ and ascorbate […], prepared from lipid mixtures containing linoleoyl stearoyl phosphatidylcholine (H-Lin-PC) as the bulk lipid (unless otherwise stated) with various contents of a series of 1-stearoyl phosphatidylcholines, including compounds of Formula (II). To measure G(τ→0) more precisely, the FCS experiments were performed under stirring conditions. […] The reduction of the G(τ→0) amplitude apparently reflected an increase in the number of fluorescent particles due to SRB release from liposomes. […]

[2] = Incorporation of orally dosed D-DHA into retina by nanoSIMS; assay type: in vivo, mouse; conditions: after three days of dosing
Protocol: In this example, D-DHA (20 mg; 1 mg/ul) was administered orally as ethyl ester to a wild-type mouse by gavage for three consecutive days in addition to unrestricted regular DHA-free rodent diet. Mouse retina was harvested and then fixed and embedded in resin. Retinal sections were analyzed with nanoscale secondary ion mass spectrometry (nanoSIMS) to determine the incorporation rates of D-DHA into retinal cells by measuring the relative enrichment of DHA-bound deuterium over its natural tissue abundance. The D-DHA/DHA substitution rate of natural DHA in the outer segments was calculated by the ratio of increased deuterium abundance vs. total hydrogen contribution of DHA in outer segments.

SMILES: [2H]C([2H])(/C=C\CC)/C=C\C([2H])([2H])/C=C\CCCCCCCC(=O)O[C@H](COC(=O)CCCCCCCCCCCCCCCCC)COP(=O)([O-])OCC[N+](C)(C)C [D4-Lnn-PC, 1-stearoyl-2-(11,11,14,14-D4-linolenyl)-sn-glycero-3-phosphatidylcholine]
relative strength of protection of H-Lin-PC bulk: % in bilayer (FIG. 6): 17%

SMILES: [2H]C([2H])(/C=C\CCCCC)/C=C\C([2H])([2H])/C=C\C([2H])([2H])/C=C\CCCC(=O)O[C@H](COC(=O)CCCCCCCCCCCCCCCCC)COP(=O)([O-])OCC[N+](C)(C)C [D6-Ara-PC, 1-stearoyl-2-(7,7,10,10,13,13-D6-arachidonoyl)-sn-glycero-3-phosphatidylcholine]
relative strength of protection of H-Lin-PC bulk: % in bilayer (FIG. 6): 12%

SMILES: [2H]C([2H])(/C=C\CCCCC)/C=C\CCCCCCCC(=O)O[C@H](COC(=O)CCCCCCCCCCCCCCCCC)COP(=O)([O-])OCC[N+](C)(C)C [D2-Lin-PC, 1-stearoyl-2-(11,11-D2-linoleyl)-sn-glycero-3-phosphatidylcholine]
relative strength of protection of H-Lin-PC bulk: % in bilayer (FIG. 6): 25%
% of deuterated lipid giving very low level of ΔA234 and very low difference in α +/- Fe2+/ascorbate (t=10 min, in H-Lin-PC, FIG. 3): ≥ 20%
effect of incubation with Fe/ascorbate on G(τ→0) amplitude of SRB ([1]; 10% D2-Lin-PC in H-Lin-PC, 0, 10, 20 min, FIG. 1A): led to a decrease in the G(τ→0) amplitude
effect of incubation with Fe2+/ascorbate on G(τ→0) amplitude of SRB ([1]; 25% D2-Lin-PC in H-Lin-PC, FIG. 1B): did not reduce the amplitude of G(τ→0) or reduced it to a very low extent
difference between extent of liposome leakage α with and without Fe2+/ascorbate ([1]; 100% of the deuterated lipid, FIG. 2A): very low

SMILES: [2H]C([2H])(/C=C\CC)/C=C\C([2H])([2H])/C=C\C([2H])([2H])/C=C\C([2H])([2H])/C=C\C([2H])([2H])/C=C\CCC(=O)O[C@H](COC(=O)CCCCCCCCCCCCCCCCC)COP(=O)([O-])OCC[N+](C)(C)C [D10-DHA-PC, 1-stearoyl-2-(6,6,9,9,12,12,15,15,18,18-D10-docosahexaenoyl)-sn-glycero-3-phosphatidylcholine]
protection, fold stronger than for D6-Ara (diene conjugates assay, H-Lin-PC matrix): 10 fold
level suppressing lipid autooxidation, diene conjugates assay (in the H-Lin-PC matrix, FIG. 6): ≤ 1%
protection from oxidative stress compared to other deuterated lipids (undeuterated H-Lin-PC matrix, FIG. 6): substantially enhanced protection from oxidative stress

SMILES: [2H]C([2H])(/C=C\CC)/C=C\C/C=C\CCCCCCCC(=O)O[C@H](COC(=O)CCCCCCCCCCCCCCCCC)COP(=O)([O-])OCC[N+](C)(C)C [D2-Lnn-PC, 1-stearoyl-2-(14,14-D2-linolenyl)-sn-glycero-3-phosphatidylcholine]
percentage needed for protection of H-Lin-PC matrix, relative to D4-Lnn-PC (FIG. 6): about twofold as high as that of D4-Lnn-PC

SMILES: [2H]C([2H])(/C=C\CC)/C=C\C([2H])([2H])/C=C\C([2H])([2H])/C=C\C([2H])([2H])/C=C\CCCC(=O)O[C@@H](COC(=O)CCCCCCCCCCCCCCCCC)COP(=O)([O-])OCC[N+](C)(C)C [D8-EPA-PC, 1-stearoyl-2-(7,7,10,10,13,13,16,16-D8-eicosapentaenoyl)-sn-glycero-3-phosphatidylcholine]
relative strength of protection of H-Lin-PC bulk: % in bilayer (FIG. 6): 10%

level reached in retinal tissues after oral dosing [2]: above 1%
SMILES: [2H]C([2H])(/C=C\CC)/C=C\C([2H])([2H])/C=C\C([2H])([2H])/C=C\C([2H])([2H])/C=C\C([2H])([2H])/C=C\CCC(=O)OCC [D-DHA, 6,6,9,9,12,12,15,15,18,18-D10-docosahexaenoic acid ethyl ester]
